Measurements reported in US20030152512A1, “Imaging thrombus with glycoprotein llb/llla antagonists” (priority 2001, published 2003).
Non-standard residues stand in square brackets, D forms with d. Residues, ends and D or L forms follow the SMILES beside them. *: point of attachment. X1 = O=C(c1ccc(NN=Cc2ccccc2S(=O)(=O)O)nc1)*; NMeR = CN[C@@H](CCCNC(=N)N)C(=O)O; HYNIC = NNc1ccc(C(=O)*)cn1; 3Amb = NCc1cccc(C(=O)O)c1

How the values were obtained:
[1] = system: venous thrombus; test: Thrombus imaging in canine deep vein thrombosis (DVT) model, gamma scintigraphy (camera ROI); format: in vivo, dog; settings: for efficacy as thrombus imaging agent (in words): dog DVT model; for Thrombus to Blood Ratio in DVT Model (Camera ROI) / Thrombus to Muscle Ratio in DVT Model (Camera ROI): dog
Procedure: (§1) Canine Deep Vein Thrombosis Model: This model incorporates the triad of events (hypercoagulatible state, period of stasis, low shear environment) essential for the formation of a venous fibrin-rich actively growing thrombus. The procedure was as follows: Adult mongrel dogs of either sex (9-13 kg) were anesthetized with pentobarbital sodium (35 mg/kg,i.v.) and ventilated with room air via an endotracheal tube (12 strokes/min, 25 ml/kg). For arterial pressure determination, the right femoral artery was cannulated with a saline-filled polyethylene catheter (PE-240) and connected to a Statham pressure transducer (P23ID; Oxnard, Calif.). Mean arterial blood pressure was determined via damping the pulsatile pressure signal. Heart rate was monitored using a cardiotachometer (Biotach, Grass Quincy, Mass.) triggered from a lead II electrocardiogram generated by limb leads. The right femoral vein was cannulated (PE-240) for drug administration. A 5 cm segment of both jugular veins was isolated, freed from fascia and circumscribed with silk suture. A microthermister probe was placed on the vessel which serves as an indirect measure of venous flow. A balloon embolectomy catheter was utilized to induce the 15 min period of stasis during which time a hypercoagulatible state was then induced using 5 U thrombin (American Diagnosticia, Greenwich Conn.) administered into the occluded segment. Fifteen minutes later, flow was reestablished by deflating the balloon. The radiopharmaceutical was infused during the first 5 minutes of reflow and the rate of incorporation monitored using gamma scintigraphy.

[2] = Blood clearance in canine deep vein thrombosis (DVT) model; settings: both, mongrel, dog, iv
Procedure: as §1

[3] = target: T1, Platelet GPIIb/IIIa (Canis lupus familiaris, UniProt A0A8I3N5G5+A0A8I3PMU9); test: Platelet GPIIb/IIIa binding assay (inhibition of 125I-fibrinogen binding to activated platelets); settings: reagents (compounds of Examples 1-3); activated canine platelets
T1 construct: from tissue
T1 sequence (A0A8I3N5G5 1-1047): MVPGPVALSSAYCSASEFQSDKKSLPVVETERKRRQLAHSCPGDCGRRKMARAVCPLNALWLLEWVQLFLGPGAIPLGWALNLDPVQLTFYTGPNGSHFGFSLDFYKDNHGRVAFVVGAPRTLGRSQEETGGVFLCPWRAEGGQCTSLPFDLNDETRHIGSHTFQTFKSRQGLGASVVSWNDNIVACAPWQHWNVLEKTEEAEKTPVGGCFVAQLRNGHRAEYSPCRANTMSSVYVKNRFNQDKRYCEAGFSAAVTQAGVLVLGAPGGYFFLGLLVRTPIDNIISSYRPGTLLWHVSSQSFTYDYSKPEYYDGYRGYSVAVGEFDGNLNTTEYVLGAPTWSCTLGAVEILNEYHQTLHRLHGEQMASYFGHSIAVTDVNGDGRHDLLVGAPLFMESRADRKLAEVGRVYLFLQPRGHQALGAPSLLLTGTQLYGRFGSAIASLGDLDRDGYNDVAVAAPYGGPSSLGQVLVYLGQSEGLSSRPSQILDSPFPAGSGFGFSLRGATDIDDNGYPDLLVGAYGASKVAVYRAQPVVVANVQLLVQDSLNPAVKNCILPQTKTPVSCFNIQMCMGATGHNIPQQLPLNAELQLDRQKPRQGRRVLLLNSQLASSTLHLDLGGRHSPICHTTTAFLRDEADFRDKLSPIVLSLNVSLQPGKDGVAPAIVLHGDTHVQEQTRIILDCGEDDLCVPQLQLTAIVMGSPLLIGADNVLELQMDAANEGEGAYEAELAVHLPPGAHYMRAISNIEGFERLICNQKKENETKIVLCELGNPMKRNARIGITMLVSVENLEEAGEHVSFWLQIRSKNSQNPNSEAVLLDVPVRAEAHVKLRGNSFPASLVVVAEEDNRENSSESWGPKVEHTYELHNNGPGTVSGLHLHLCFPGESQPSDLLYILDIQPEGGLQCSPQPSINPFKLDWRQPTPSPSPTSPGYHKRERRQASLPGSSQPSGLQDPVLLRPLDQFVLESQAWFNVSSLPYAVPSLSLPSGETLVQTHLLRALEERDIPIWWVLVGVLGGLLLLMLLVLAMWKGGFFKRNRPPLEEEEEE
T1 sequence (A0A8I3PMU9 1-919): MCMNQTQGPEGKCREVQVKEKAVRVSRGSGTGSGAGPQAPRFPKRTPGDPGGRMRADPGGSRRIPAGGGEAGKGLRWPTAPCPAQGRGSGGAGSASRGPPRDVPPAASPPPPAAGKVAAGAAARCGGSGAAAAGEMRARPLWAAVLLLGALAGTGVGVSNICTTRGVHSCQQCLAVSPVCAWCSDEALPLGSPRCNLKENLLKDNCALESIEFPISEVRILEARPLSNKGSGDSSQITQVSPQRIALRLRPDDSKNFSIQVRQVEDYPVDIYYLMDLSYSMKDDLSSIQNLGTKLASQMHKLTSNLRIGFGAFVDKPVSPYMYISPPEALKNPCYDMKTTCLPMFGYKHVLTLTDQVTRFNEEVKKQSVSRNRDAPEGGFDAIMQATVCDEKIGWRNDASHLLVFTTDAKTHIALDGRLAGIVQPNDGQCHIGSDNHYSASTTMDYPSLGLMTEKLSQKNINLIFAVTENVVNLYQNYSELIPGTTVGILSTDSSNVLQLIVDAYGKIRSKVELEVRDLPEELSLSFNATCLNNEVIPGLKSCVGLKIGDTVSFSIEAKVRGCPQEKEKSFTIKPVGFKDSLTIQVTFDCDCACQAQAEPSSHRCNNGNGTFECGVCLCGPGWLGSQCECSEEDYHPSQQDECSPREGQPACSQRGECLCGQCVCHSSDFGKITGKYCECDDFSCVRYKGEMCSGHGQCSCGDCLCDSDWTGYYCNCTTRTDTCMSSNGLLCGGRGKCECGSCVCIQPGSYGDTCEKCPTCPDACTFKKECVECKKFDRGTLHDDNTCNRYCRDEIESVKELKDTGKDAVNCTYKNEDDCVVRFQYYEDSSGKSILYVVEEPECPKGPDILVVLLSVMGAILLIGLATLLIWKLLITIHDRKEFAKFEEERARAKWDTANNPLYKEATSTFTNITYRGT
Procedure: Platelet GPIIb/IIIa Binding Assay:
During isolation, platelets were rendered quiescent by the addition of aspirin and when appropriate, primed by the addition of PGE 1. Experimentation was completed in a microtiter format with final concentrations between 1 and 2×10^7 platelets/well. Platelets were activated by the addition of CaCl2 (2 mM) and thrombin (0.2 U/mL) while non-activated platelets received buffer. Hirudin (0.5 U/mL) was added to stop the activation reaction.

Structure (SMILES) | efficacy as thrombus imaging agent (in words) [1] | Thrombus to Blood Ratio in DVT Model (Camera ROI) ([1]; time 30 min) | Thrombus to Muscle Ratio in DVT Model (Camera ROI) ([1]; time 30 min) | Thrombus to Blood Ratio in DVT Model (Camera ROI) ([1]; time 120 min) | Thrombus to Muscle Ratio in DVT Model (Camera ROI) ([1]; time 120 min) | tissue uptake at 0 h [2] | tissue uptake at 0.25 h [2] | tissue uptake at 0.5 h [2] | tissue uptake at 1 h [2] | tissue uptake at 1.5 h [2] | tissue uptake at 2 h [2] | IC50 [3] | also measured
CC(C)[C@H]1NC(=O)c2cc(cc(CNC(=O)[C@H](CC(=O)O)NC(=O)c3ccc(NN)nc3)c2)CNC(=O)[C@H](CC(=O)O)NC(=O)CNC(=O)[C@H](CCCNC(=N)N)N(C)C1=O (99mTc complex, metal not drawn) [Example 4] | effective thrombus imaging agents | 2.29 ± 0.60 | 4.31 ± 1.33 | 3.36 ± 0.99 | 4.70 ± 1.05 | 0.141 %ID/g | 0.07 %ID/g | 0.067 %ID/g | 0.053 %ID/g | 0.046 %ID/g | 0.045 %ID/g | – | Thrombus to Blood Ratio in DVT Model (Camera ROI) ([1]; time 15 min, listed as Ex. 4): 2.00 ± 0.25; Thrombus to Muscle Ratio in DVT Model (Camera ROI) ([1]; time 15 min, listed as Ex. 4): 3.18 ± 0.45; Thrombus to Blood Ratio in DVT Model (Camera ROI) ([1]; time 60 min, listed as Ex. 4): 2.86 ± 0.31; Thrombus to Muscle Ratio in DVT Model (Camera ROI) ([1]; time 60 min, listed as Ex. 4): 4.31 ± 0.79
CN1C(=O)[C@@H](CCCCNC(=O)c2ccc(NN)nc2)NC(=O)c2cccc(c2)CNC(=O)[C@H](CC(=O)O)NC(=O)CNC(=O)[C@@H]1CCCNC(=N)N (99mTc complex, metal not drawn) [Example 5] (cyclo([NMeR]GD[3Amb][dK](HYNIC))) | effective thrombus imaging agents | 1.86 ± 0.23 | 2.27 ± 0.29 | 2.57 ± 0.25 | 3.34 ± 0.18 | 0.11 ± 0.01 %ID/g | 0.039 ± 0.003 %ID/g | 0.027 ± 0.003 %ID/g | 0.021 ± 0.002 %ID/g | 0.018 ± 0.002 %ID/g | 0.017 ± 0.002 %ID/g | – | Thrombus to Blood Ratio in DVT Model (Camera ROI) ([1]; time 15 min, listed as Ex. 5): 1.64 ± 0.21; Thrombus to Muscle Ratio in DVT Model (Camera ROI) ([1]; time 15 min, listed as Ex. 5): 2.12 ± 0.29; Thrombus to Blood Ratio in DVT Model (Camera ROI) ([1]; time 60 min, listed as Ex. 5): 2.13 ± 0.23; Thrombus to Muscle Ratio in DVT Model (Camera ROI) ([1]; time 60 min, listed as Ex. 5): 2.66 ± 0.29
CC(C)[C@H]1NC(=O)c2cc(cc(CNC(=O)[C@H](CC(=O)O)NC(=O)c3ccc(N/N=C/c4ccccc4S(=O)(=O)O)nc3)c2)CNC(=O)[C@H](CC(=O)O)NC(=O)CNC(=O)[C@H](CCCNC(=N)N)N(C)C1=O [Example 1] | – | – | – | – | – | – | – | – | – | – | – | 7 nM | –
CN1C(=O)[C@@H](CCCCNC(=O)c2ccc(NN=Cc3ccccc3S(=O)(=O)O)nc2)NC(=O)c2cccc(c2)CNC(=O)[C@H](CC(=O)O)NC(=O)CNC(=O)[C@@H]1CCCNC(=N)N [Example 2, cyclo{N-Me-Arg-Gly-Asp-Mamb-D-Lys([2-[[[5-[carbonyl]-2-pyridinyl]hydrazono]methyl]-benzenesulfonic acid])}] (cyclo([NMeR]GD[3Amb][dK](X1))) | – | – | – | – | – | – | – | – | – | – | – | 14 nM | –
N=C(N)c1ccc(C2=NOC(CC(=O)NCC(NC(=O)c3ccc(NN=Cc4ccccc4S(=O)(=O)O)nc3)C(=O)O)C2)cc1 (stereo not drawn) [Example 3] | – | – | – | – | – | – | – | – | – | – | – | 66 nM | –
CC(C)[C@H]1NC(=O)c2cc(cc(NC(=O)CCCCCNC(=O)c3ccc(NN)nc3)c2)CNC(=O)[C@H](CC(=O)O)NC(=O)CNC(=O)[C@H](CCCNC(=N)N)N(C)C1=O [Example 7, ^99mTc(cyclo(D-Val-NmeArg-Gly-Asp-Mamb(hydrazino-nicotinyl-5-Aca)))(tricine)(TPPTS), metal not drawn] | effective thrombus imaging agents | 3.10 ± 0.42 | 4.80 ± 0.38 | 6.60 ± 1.42 | 9.90 ± 2.64 | 0.119 ± 0.003 %ID/g | 0.08 ± 0.003 %ID/g | 0.066 ± 0.004 %ID/g | 0.059 ± 0.001 %ID/g | 0.05 ± 0.002 %ID/g | 0.049 ± 0.001 %ID/g | – | Thrombus to Blood Ratio in DVT Model (Camera ROI) ([1]; time 15 min, listed as Ex. 7): 2.10 ± 0.10; Thrombus to Muscle Ratio in DVT Model (Camera ROI) ([1]; time 15 min, listed as Ex. 7): 3.40 ± 0.30; Thrombus to Blood Ratio in DVT Model (Camera ROI) ([1]; time 60 min, listed as Ex. 7): 5.30 ± 0.91; Thrombus to Muscle Ratio in DVT Model (Camera ROI) ([1]; time 60 min, listed as Ex. 7): 7.00 ± 1.40
